One experiment has as its target T1, Glucocorticoid Receptor (Homo sapiens, UniProt P04150).
T1 construct: These cells express large amount of the GR and are very responsive to GC treatment; endogenous in cells; host or cells: A549 cells transiently transfected with the MMTV-LUC reporter
T1 sequence (P04150 1-777): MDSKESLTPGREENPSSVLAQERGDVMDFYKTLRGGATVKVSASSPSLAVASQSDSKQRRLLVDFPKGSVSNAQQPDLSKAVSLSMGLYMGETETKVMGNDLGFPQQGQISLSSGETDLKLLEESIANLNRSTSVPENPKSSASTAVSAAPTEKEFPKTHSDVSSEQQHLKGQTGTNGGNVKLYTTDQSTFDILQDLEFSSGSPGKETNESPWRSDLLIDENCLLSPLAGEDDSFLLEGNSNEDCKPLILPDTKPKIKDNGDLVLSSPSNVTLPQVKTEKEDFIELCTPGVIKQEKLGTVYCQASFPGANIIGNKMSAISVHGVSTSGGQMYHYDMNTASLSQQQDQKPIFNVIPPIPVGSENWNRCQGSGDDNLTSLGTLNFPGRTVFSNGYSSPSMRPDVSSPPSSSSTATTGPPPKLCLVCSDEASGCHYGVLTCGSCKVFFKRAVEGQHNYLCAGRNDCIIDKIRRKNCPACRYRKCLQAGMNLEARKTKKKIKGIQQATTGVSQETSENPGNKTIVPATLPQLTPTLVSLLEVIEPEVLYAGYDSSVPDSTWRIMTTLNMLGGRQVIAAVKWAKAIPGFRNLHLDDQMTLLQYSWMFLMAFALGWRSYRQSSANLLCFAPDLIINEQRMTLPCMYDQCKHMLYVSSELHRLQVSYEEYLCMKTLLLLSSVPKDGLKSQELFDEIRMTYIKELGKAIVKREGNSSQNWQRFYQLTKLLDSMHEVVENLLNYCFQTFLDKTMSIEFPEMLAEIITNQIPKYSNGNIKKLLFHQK
The experiment can be described thus: Trans-Activation Modulation of Glucocorticoid Receptor (GRAMMER), MMTV-LUC reporter gene in A549 cells. The class given is cell-based. The settings on record: Table 1; for Emax: A549, A549 cells, read-out: Transactivation A549 Cells GRAMMER Emax; for Emax / Transactivation A549 Cells GRAMMER Emax: Emax relative to 300 nM dexamethasone; for EC50: inflection point, read-out: Transactivation A549 Cells GRAMMER IP; for EC50 / Transactivation A549 Cells GRAMMER Emax: A549 cells. The essentials: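 Luciferase from a transiently transfected MMTV-LUC reporter was measured after 24 h compound exposure (≤1% DMSO) in A549 or MDA-MB-453 cells. For antagonism, the decrease of 10 nM dexamethasone-induced signal was calculated. For agonism, Emax was referenced to 300 nM dexamethasone.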
For orientation: Reporter assays use an easily measured gene product as a stand-in for the process of interest.

The next experiment has as its target T2, human GR (Homo sapiens, UniProt P04150).
T2 construct: U937 cells contain an endogenous glucocorticoid receptor (GR); endogenous in cells; host or cells: U937 cells stably transfected with the TNF-alpha promoter/beta-lactamase reporter
T2 sequence (P04150 1-777): T1 sequence (P04150 1-777)
The experiment can be described thus: Transrepression Assay (GITAR), TNFα-β-lactamase reporter gene in U937 cells. The class given is cell-based. The note with it: for GITAR Greater than by GRAMMER % SEP: GITAR Emax minus GRAMMER Emax; for EC50: inflection point, read-out: Transrepression U937 Cells GITAR IP; for EC50 / Transrepression U937 Cells GITAR Emax: U937 cells. The essentials: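 Repression of PMA (5 ng/ml final)/LPS (100 ng/ml final)-induced TNF-α promoter activity, read as β-lactamase cleavage of CCF2-AM, in stably transfected U937 cells expressing native GR. Compound added 30-45 min before stimulation, overnight (~18 hr) 37° C; normalized to 100 nM dexamethasone (100%).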

Experiment [1] addresses T3, glucocorticoid receptor (GR) (Homo sapiens, UniProt P04150).
T3 sequence (P04150 1-777): T1 sequence (P04150 1-777)
The experiment can be described thus: Ligand binding assay (GR BIND), 3H-dexamethasone displacement in MDA-MB-453 cell lysate. The settings on record: GR BIND Ki, Table 1.

Where [2] appears, read: U-937, U937 cells, activity repressed by 100 nM dexamethasone = 100%, Table 1, read-out: Transrepression U937 Cells GITAR Emax.
Where [3] appears, read: U-937, text statement, 100 nM dexamethasone = 100%, read-out: maximal activity in the transrepression assay (GITAR).
Where [4] appears, read: activity repressed by 100 nM dexamethasone = 100%, Table 1.

The structures appear in SMILES notation. Where two headings read alike, the source gives them in different places. Some results are limits rather than exact numbers.

The record followed here is US8338472B2, “Hexahydrocyclopentyl[F]indazole carboxamides and derivatives thereof as selective glucocorticoid receptor modulators” (Merck Sharp & Dohme Corp., priority 2008, dated 2012).

As a reminder, the Ki is a measure of affinity in units of concentration, obtained from inhibition or displacement.

As to `C[C@]12Cc3cnn(-c4ccc(F)cc4)c3C=C1CC[C@@H]2C(=O)NCc1ccc(Cl)cc1Cl` [Compound 3, (4αR,5S)-N-(2,4-dichlorobenzyl)-1-(4-fluorophenyl)-4α-methyl-1,4,4α,5,6,7-hexahydrocyclopenta[f]indazole-5-carboxamide], the Emax on Glucocorticoid Receptor was 0.9%; at human GR (setting [2]), 17%; on human GR (setting [3]) it was > 5%. The EC50 on Glucocorticoid Receptor was 5590 nM; on human GR (Table 1), 5200 nM. Besides, on human GR (Table 1), the “GITAR Greater than by GRAMMER % SEP” value came out at 16.1%. Further, affinity in experiment [1] was put at a Ki of 16.2 nM.
In the case of `CC(C)CN(C[C@H](C)O)C(=O)[C@H]1CCC2=Cc3c(cnn3-c3ccc(F)cc3)C[C@@]21C` [Compound 66, (4αR,5S)-1-(4-fluorophenyl)-N-[(2S)-2-hydroxypropyl]-N-isobutyl-4α-methyl-1,4,4α,5,6,7-hexahydrocyclopenta[f]indazole-5-carboxamide], the Emax on Glucocorticoid Receptor was 67.6%; at human GR (setting [2]), 78.1%; at human GR (setting [3]), > 5%. The figures for the EC50 on Glucocorticoid Receptor and on human GR (Table 1) were 613 nM and 685 nM, respectively. In addition, the “GITAR Greater than by GRAMMER % SEP” value at human GR (Table 1) came out at 10.5%. The same compound returned a Ki in experiment [1] of 8.7 nM.
Regarding `CCCN(C[C@H](C)O)C(=O)[C@H]1CCC2=Cc3c(cnn3-c3ccc(F)cc3)C[C@@]21C` [Compound 65, (4αR,5S)-1-4-(4-fluorophenyl)-N-[(2S)-2-hydroxypropyl]-4α-methyl-N-propyl-1,4,4α,5,6,7-hexahydrocyclopenta[f]indazole-5-carboxamide], the results for the Emax at Glucocorticoid Receptor, on human GR (setting [2]) and on human GR (setting [3]) were 72.8%, 81.2% and > 5%, respectively. Besides, the EC50 was found to be 431 nM at Glucocorticoid Receptor and 424 nM at human GR (Table 1). For the same compound, the “GITAR Greater than by GRAMMER % SEP” value on human GR (Table 1) was determined as 8.4%. In experiment [1], this compound yielded a Ki of 4.7 nM.
With `CC(C)CCN(CCC(C)C)C(=O)[C@H]1CCC2=Cc3c(cnn3-c3ccc(F)cc3)C[C@@]21C` [Compound 8, (4αR,5S)-1-(4-fluorophenyl)-4α-methyl-N,N-bis(3-methylbutyl)-1,4,4α,5,6,7-hexahydrocyclopenta[f]indazole-5-carboxamide], the Emax at Glucocorticoid Receptor was 5.6%; at human GR (setting [2]), 18%; on human GR (setting [3]), > 5%. For the same compound, the values for the EC50 on Glucocorticoid Receptor and on human GR (Table 1) were 728 nM and 812 nM, respectively. Moreover, the “GITAR Greater than by GRAMMER % SEP” value at human GR (Table 1) was 12.4%. The same compound registered a Ki in experiment [1] of 1 nM.
Consider `CC(C)CN(CC(O)C(F)(F)F)C(=O)[C@H]1CCC2=Cc3c(cnn3-c3ccc(F)cc3)C[C@@]21C` (stereo partly drawn) [Compound 58, (4αR,5S)-1-(4-fluorophenyl)-N-isobutyl-4α-methyl-N-(3,3,3-trifluoro-2-hydroxypropyl)-1,4,4α,5,6,7-hexahydrocyclopenta[f]indazole-5-carboxamide], for which the Emax is 71.5% at Glucocorticoid Receptor, 86.8% on human GR (setting [2]) and > 5% at human GR (setting [3]). The EC50 on Glucocorticoid Receptor stood at 227 nM; on human GR (Table 1), 122 nM. For the same compound, the “GITAR Greater than by GRAMMER % SEP” value at human GR (Table 1) was determined as 15.3%. This compound also displayed an inhibitory constant (Ki) in experiment [1] of 7.3 nM.
On to `C[C@]12Cc3cnn(-c4ccc(F)cc4)c3C=C1CC[C@@H]2C(=O)N(CCc1ccccc1F)CC(O)CC(F)(F)F` (stereo partly drawn) [Compound 94, (4αR,5S)-l-(4-fluorophenyl)-N-[2-(2-fluorophenyl)ethyl]-4α-methyl-N-(4,4,4-trifluoro-2-hydroxybutyl)-1,4,4α,5,6,7-hexahydrocyclopenta[f]indazole-5-carboxamide], for which the Emax came out at 43.8% at Glucocorticoid Receptor and 51.8% on human GR (setting [2]). The EC50 at Glucocorticoid Receptor came out at 363 nM; at human GR (Table 1) it was 531 nM. Further, on human GR (Table 1), the “GITAR Greater than by GRAMMER % SEP” value turned out to be 8.0%. This compound also registered an inhibition constant Ki in experiment [1] of 1.8 nM.
With `Cc1ccc(CCN(CC(O)CC(F)(F)F)C(=O)[C@H]2CCC3=Cc4c(cnn4-c4ccc(F)cc4)C[C@@]32C)cc1` (stereo partly drawn) [Compound 85, (4αR,5S)-1-(4-fluorophenyl)-4α-methyl-N-[2-(4-methylphenyl)ethyl]-N-(4,4,4-trifluoro-2-hydroxybutyl)-1,4,4α,5,6,7-hexahydrocyclopenta[f]indazole-5-carboxamide], the Emax at Glucocorticoid Receptor is 14.2%; on human GR (setting [2]), 45.3%; at human GR (setting [3]) it was > 5%. Further, the results for the EC50 at Glucocorticoid Receptor and at human GR (Table 1) were 399 nM and 818 nM, respectively. Also, the “GITAR Greater than by GRAMMER % SEP” value at human GR (Table 1) was 31.1%. Moreover, the Ki in experiment [1] came to 3.5 nM.
Regarding `CC(C)CN(CC(O)C(F)(F)F)C(=O)[C@H]1CCC2=Cc3c(cnn3-c3ccccc3)C[C@@]21C` (stereo partly drawn) [Compound 80, (4αR,5S)-N-isobutyl-4a-methyl-1-phenyl-N-(3,3,3-trifluoro-2-hydroxypropyl)-1,4,4α,5,6,7-hexahydrocyclopenta[f]indazole-5-carboxamide], the values for the Emax at Glucocorticoid Receptor, at human GR (setting [2]) and on human GR (setting [3]) were 70.5%, 83.2% and > 5%, respectively. For the same compound, the figures for the EC50 at Glucocorticoid Receptor and on human GR (Table 1) were 222 nM and 337 nM, respectively. Also, at human GR (Table 1), the “GITAR Greater than by GRAMMER % SEP” value is 12.8%. Moreover, affinity in experiment [1] was put at a Ki of 3.7 nM.
For the compound `CCN(CC(O)C(F)(F)F)C(=O)[C@H]1CCC2=Cc3c(cnn3-c3ccccc3)C[C@@]21C` (stereo partly drawn) [Compound 77, (4αR,5S)-N-ethyl-4α-methyl-1-phenyl-N-(3,3,3-trifluoro-2-hydroxypropyl)-1,4,4α,5,6,7-hexahydrocyclopenta[f]indazole-5-carboxamide], at Glucocorticoid Receptor, the “Transactivation A549 Cells GRAMMER Emax” value turned out to be 67.8% and the EC50 was 304 nM. On human GR (Table 1), the “GITAR Greater than by GRAMMER % SEP” value was 10.2% and the EC50 stood at 266 nM. Besides, the “Transrepression U937 Cells GITAR Emax” value at human GR (setting [4]) was 78.0%. For the same compound, in experiment [1], the inhibition constant (Ki) came out at 9.8 nM.
For `CN(CC(O)C(F)(F)F)C(=O)[C@H]1CCC2=Cc3c(cnn3-c3ccccc3)C[C@@]21C` (stereo partly drawn) [Compound 75, (4αR,5S)-N,4α-dimethyl-1-phenyl-N-(3,3,3-trifluoro-2-hydroxypropyl)-1,4,4α,5 ,6,7-hexahydrocyclopenta[f]indazole-5-carboxamide], at Glucocorticoid Receptor, the “Transactivation A549 Cells GRAMMER Emax” value is on record as 65.2% and the EC50 was 164 nM. Also, on human GR (Table 1), the “GITAR Greater than by GRAMMER % SEP” value came out at 18.9% and the EC50 came to 181 nM. Also, the “Transrepression U937 Cells GITAR Emax” value at human GR (setting [4]) was 84.0%. In experiment [1], this compound registered a Ki of 7.6 nM.
On to `CN(CCOc1ccccc1)C(=O)[C@H]1CCC2=Cc3c(cnn3-c3ccc(F)cc3)C[C@@]21C` [Compound 48, (4αR,5S)-1-(4-fluorophenyl)-N,4α-dimethyl-N-(2-phenoxyethyl)-1,4,4α,5,6,7-hexahydrocyclopenta[f] indazole-5-carboxamide], for which the Emax is 2.7% at Glucocorticoid Receptor, 22.8% on human GR (setting [2]) and > 5% at human GR (setting [3]). Further, the EC50 at Glucocorticoid Receptor amounted to 1390 nM; at human GR (Table 1), 410 nM. For the same compound, on human GR (Table 1), the “GITAR Greater than by GRAMMER % SEP” value was found to be 20.0%. Also, affinity in experiment [1] was put at a Ki of 7 nM.
As to `CCN(CC(O)C(F)(F)F)C(=O)[C@H]1CCC2=Cc3c(cnn3-c3ccc(F)cc3)C[C@@]21C` (stereo partly drawn) [Compound 71, (4αR,5S)-N-ethyl-1-(4-fluorophenyl)-4α-methyl-N-(3,3,3-trifluoro-2-hydroxypropyl)-1,4,4α,5,6,7-hexahydrocyclopenta[f]indazole-5-carboxamide], the values for the Emax on Glucocorticoid Receptor, on human GR (setting [2]) and at human GR (setting [3]) were 71.7%, 95.6% and > 5%, respectively. Further, the EC50 was 151 nM on Glucocorticoid Receptor and 85 nM on human GR (Table 1). The “GITAR Greater than by GRAMMER % SEP” value on human GR (Table 1) worked out at 24.0%. In addition, affinity in experiment [1] was put at a Ki of 2.6 nM.
